Measured values: ChEMBL document CHEMBL1156092, “Anthranilic sulfonamide CCK1/CCK2 dual receptor antagonists II: tuning of receptor selectivity and in vivo efficacy” (Bioorg Med Chem Lett, 2009)

Experiments:
Homo sapiens = organism: Homo sapiens; test: Ratio of pKi for human CCK-1R to pKi for human CCK-2R
[1] = Plasma half life in rat at 2 umol/kg, iv; type: ADME, organism-based
[2] = Oral bioavailability in rat at 2 umol/kg; type: ADME, organism-based; conditions: in vivo
[3] = Volume of distribution at steady state in rat at 2 umol/kg, iv and 2 umol/kg, po; type: ADME, organism-based; conditions: in vivo, read-out: Vdss
[4] = Plasma clearance in rat at 2 umol/kg, iv; type: ADME, organism-based
Rattus norvegicus [5] = test: Inhibition of CCK8s-stimulated plasma amylase release in rat assessed as reduction in plasma amylase at 30 umol/kg, po dosed 60 mins before 10 nmol/kg, sc CCK8s challenge and measured after 6 hrs; type: functional
[6] = Apparent permeability from basolateral to apical side in human Caco-2 cells; type: ADME, cell-based
[7] = Apparent permeability from apical to basolateral side in human Caco-2 cells; type: ADME, cell-based
[8] = Metabolic stability in human liver microsomes assessed as compound remaining after 15 mins; type: ADME, Microsome; conditions: read-out: Stability
Rattus norvegicus [9] = test: Inhibition of iv dosed pentagastrin-stimulated gastric acid secretion in iv dosed anesthetized Ghosh and Schild rat model assessed as decrease in gastric lumen perfusate pH; type: functional, Stomach; conditions: for ED50: Rattus norvegicus, Stomach, iv
[10] = biological target: T1, Gastrin/cholecystokinin type B receptor (Homo sapiens, UniProt P32239); test: Displacement of [125I]-CCK-8S from human CCK-2R after 100 mins by liquid scintillation counting
T1 sequence (P32239 whole entry): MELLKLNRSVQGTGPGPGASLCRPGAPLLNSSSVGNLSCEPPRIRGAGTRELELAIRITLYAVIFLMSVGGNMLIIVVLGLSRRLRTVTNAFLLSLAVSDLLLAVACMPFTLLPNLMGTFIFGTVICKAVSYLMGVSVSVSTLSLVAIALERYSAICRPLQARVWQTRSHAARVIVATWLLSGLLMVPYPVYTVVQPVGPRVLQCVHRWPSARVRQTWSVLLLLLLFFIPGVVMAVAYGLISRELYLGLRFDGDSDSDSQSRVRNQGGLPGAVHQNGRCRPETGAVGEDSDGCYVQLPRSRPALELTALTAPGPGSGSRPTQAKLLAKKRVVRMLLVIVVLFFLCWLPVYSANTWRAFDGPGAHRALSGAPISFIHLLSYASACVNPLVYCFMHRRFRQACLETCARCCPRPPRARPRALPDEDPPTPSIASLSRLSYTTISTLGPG

SMILES: O=C(N[C@@H](Cc1ccc(F)c(Br)c1)C(=O)O)c1ccc(I)cc1NS(=O)(=O)c1cccc2nsnc12
- Ratio pKi (Homo sapiens): 1.5
- half-life [1]: 6.4 h
- bioavailability [2]: 14%
- Vd [3]: 0.215 L/kg
- clearance [4]: 3.1 mL/min/kg

SMILES: O=C(N[C@@H](Cc1ccc(F)c(Br)c1)C(=O)O)c1cc(Cl)c(Cl)cc1NS(=O)(=O)c1cccc2nsnc12
- inhibition (INH) (Rattus norvegicus [5]): 67%
- Papp B→A [6]: 0.37 ×10⁻⁶ cm/s
- Papp A→B [7]: 0.02 ×10⁻⁶ cm/s
- half-life [1]: 6.2 h
- remaining at 0.25 h [8]: 76%
- bioavailability [2]: 21%
- Vd [3]: 0.203 L/kg
- pED50 (Rattus norvegicus [9]): 5.8
- ED50 (Rattus norvegicus [9]): 1.6 µmol/kg
- clearance [4]: 2.6 mL/min/kg

SMILES: O=C(N[C@@H](Cc1ccc(Cl)c(Br)c1)C(=O)O)c1ccc(Br)cc1NS(=O)(=O)c1cccc2nccnc12
- inhibition (INH) (Rattus norvegicus [5]): 65%
- Papp B→A [6]: 1.97 ×10⁻⁶ cm/s
- Papp A→B [7]: 0.1 ×10⁻⁶ cm/s
- Ratio pKi (Homo sapiens): 1
- remaining at 0.25 h [8]: 69%

SMILES: O=C(N[C@@H](Cc1ccc(Cl)c(Br)c1)C(=O)O)c1ccc(Br)cc1NS(=O)(=O)c1cccc2nsnc12
- Papp B→A [6]: 0.19 ×10⁻⁶ cm/s
- Papp A→B [7]: 0.1 ×10⁻⁶ cm/s
- Ratio pKi (Homo sapiens): 1
- remaining at 0.25 h [8]: 61%

SMILES: O=C(N[C@@H](Cc1ccc(F)c(Br)c1)C(=O)O)c1ccc(Br)cc1NS(=O)(=O)c1cccc2nccnc12
- inhibition (INH) (Rattus norvegicus [5]): 67%
- Papp B→A [6]: 4.36 ×10⁻⁶ cm/s
- Papp A→B [7]: 0.03 ×10⁻⁶ cm/s
- Ratio pKi (Homo sapiens): 1.8
- remaining at 0.25 h [8]: 54%

SMILES: O=C(N[C@@H](Cc1ccc(F)c(Br)c1)C(=O)O)c1ccc(Br)cc1NS(=O)(=O)c1cccc2nsnc12
- Papp B→A [6]: 0.34 ×10⁻⁶ cm/s
- Papp A→B [7]: 0.05 ×10⁻⁶ cm/s
- Ratio pKi (Homo sapiens): 1.6
- remaining at 0.25 h [8]: 47%

SMILES: O=C(N[C@@H](Cc1ccc(Cl)c(Cl)c1)C(=O)O)c1ccc(I)cc1NS(=O)(=O)c1cccc2nsnc12
- inhibition (INH) (Rattus norvegicus [5]): 45%
- Ratio pKi (Homo sapiens): 0.9
- pED50 (Rattus norvegicus [9]): 5.1
- ED50 (Rattus norvegicus [9]): 7.9 µmol/kg
- Ki [10]: 25.1 nM

SMILES: O=C(N[C@@H](Cc1ccc(F)c(Br)c1)C(=O)O)c1ccc(Cl)cc1NS(=O)(=O)c1cccc2nsnc12
- Papp B→A [6]: 1.25 ×10⁻⁶ cm/s
- Papp A→B [7]: 0.04 ×10⁻⁶ cm/s
- Ratio pKi (Homo sapiens): 1.4
- half-life [1]: 1.3 h
- remaining at 0.25 h [8]: 65%
- bioavailability [2]: 11%
- Vd [3]: 0.105 L/kg
- clearance [4]: 3.1 mL/min/kg

SMILES: O=C(N[C@@H](Cc1ccc(F)c(Br)c1)C(=O)O)c1cc(Cl)c(Cl)cc1NS(=O)(=O)c1cccc2nccnc12
- inhibition (INH) (Rattus norvegicus [5]): -5%
- Papp B→A [6]: 1.05 ×10⁻⁶ cm/s
- Papp A→B [7]: 0.1 ×10⁻⁶ cm/s
- Ratio pKi (Homo sapiens): 1.4
- half-life [1]: 7 h
- remaining at 0.25 h [8]: 65%
- bioavailability [2]: 9%
- Vd [3]: 0.129 L/kg
- clearance [4]: 2 mL/min/kg

SMILES: O=C(N[C@@H](Cc1ccc(F)c(Br)c1)C(=O)O)c1ccc(Cl)cc1NS(=O)(=O)c1cccc2nccnc12
- Papp B→A [6]: 4.76 ×10⁻⁶ cm/s
- Papp A→B [7]: 0.04 ×10⁻⁶ cm/s
- Ratio pKi (Homo sapiens): 1.6
- half-life [1]: 1.5 h
- remaining at 0.25 h [8]: 50%
- bioavailability [2]: 4%
- Vd [3]: 0.145 L/kg
- clearance [4]: 4.1 mL/min/kg
